Results: patent US20250120399A1, “METHODS AND COMPOSITIONS FOR ALTERING METABOLITES IN VITIS SPP. AND PREVENTING PESTS AND PATHOGENS” (Impello Biosciences, Inc., priority 2022, published 2025)
Where “and” joins values, the source holds several entries; their conditions need not be identical. Equal values may be shown once.

Test system: Grapevine (Malbec variety)
Assay: Leaf sap Brix by refractometer, Malbec field trial (Example 1)
Format: in vivo, Vitis vinifera
Conditions: for Brix, individual leaf: leaf no. 1-25, one line per leaf
Procedure: An eliciting composition and methods of use to alter metabolite production were tested on 6 acres of a Malbec variety planted in 1999 in Napa Valley, California. Plants were spaced 5′×10′ (900 vines per acre) and grouped into randomized blocks of 900 vines per group, with six replicates covering three acres for the treatment group, and six replicates covering three acres for the control group. The treatment group received two applications of 32 oz of MDJ applied at a rate of 100 gallons per acre (2.5 mM), once prior to veraison on Aug. 9, 2021 and again when 5-10% of berries were starting to blush (veraison) using a ground spray rig (backpack sprayer). From within each replicate, three plants were selected at random, and 25 leaves from each plant were randomly selected for analysis. The internal sap of the leaves was tested using a refractometer on the days shown below in Table 4 and FIG. 1. Data from each replicate was averaged (25 leaves from each plant, 3 plants).

[1] = Malbec, 2.5 mM MDJ, average of all replicate groups sampled
[2] = Replicate 1 sampled on Aug. 15, 2021, MDJ treated Plant #1
[3] = Replicate 1 sampled on Aug. 15, 2021, MDJ treated Plant #2
[4] = Replicate 1 sampled on Aug. 15, 2021, MDJ treated Plant #3
[5] = Replicate 2 sampled on Sep. 22, 2021, MDJ treated Plant #1
[6] = Replicate 2 sampled on Sep. 22, 2021, MDJ treated Plant #2
[7] = Replicate 2 sampled on Sep. 22, 2021, MDJ treated Plant #3
[8] = Replicate 3 sampled on Sep. 30, 2021, MDJ treated Plant #1
[9] = Replicate 3 sampled on Sep. 30, 2021, MDJ treated Plant #2

`CCCCCC1C(=O)CCC1CC(=O)OC` (stereo not shown) [MDJ, methyl dihydrojasmonate] was tested. Which “Brix, individual leaf” value (Malbec, 2.5 mM MDJ, Replicate 1 sampled on Aug. 15, 2021, MDJ treated Plant #1) did it give?
The value was 21.0 and 20.0 (2×) and 19.0 (2×) and 19.8 (3×) and 19.5 (3×) and 18.7 (2×) and 19.4 (2×) and 20.5 (2×) and 18.9 (5×) and 18.4 and 19.9 (2×).

And the “Brix, individual leaf” value (Malbec, 2.5 mM MDJ, Replicate 1 sampled on Aug. 15, 2021, MDJ treated Plant #2)?
Its value is 18.8 and 22.1 and 19.6 and 18.7 and 18.9 (2×) and 19.7 (2×) and 19.0 (2×) and 21.0 (2×) and 20.1 and 19.2 (2×) and 21.1 and 21.8 and 19.1 (2×) and 18.3 and 18.0 and 18.6 and 22.8 and 19.5 and 19.3.

And the “Brix, individual leaf” value (Malbec, 2.5 mM MDJ, Replicate 1 sampled on Aug. 15, 2021, MDJ treated Plant #3)?
The value was 19.1 and 19.7 (2×) and 19.0 (2×) and 21.0 and 21.8 (2×) and 19.2 (2×) and 20.0 and 19.10 and 19.00 (2×) and 19.30 (2×) and 19.60 and 19.40 (2×) and 18.80 and 18.90 (2×) and 19.6 and 18.3 and 18.9.

What about the “Brix, individual leaf” value (Malbec, 2.5 mM MDJ, Replicate 2 sampled on Sep. 22, 2021, MDJ treated Plant #1) of the same compound?
Its value is 23.9 and 26.3 and 23.4 and 26.8 and 24.3 and 23.1 and 25.0 and 22.9.

What about the “Brix, individual leaf” value (Malbec, 2.5 mM MDJ, Replicate 2 sampled on Sep. 22, 2021, MDJ treated Plant #2) of the same compound?
Its value is 26.5 and 25.5 and 24.8 and 24.9 and 26.7 and 23.8 and 24.0 and 25.0.

And the “Brix, individual leaf” value (Malbec, 2.5 mM MDJ, Replicate 2 sampled on Sep. 22, 2021, MDJ treated Plant #3)?
The value was 25.00 (2×) and 19.90 (2×) and 22.40 and 23.80 and 19.30 and 24.60 and 24.50.

What about the “MDJ TREATED averages, BRIX METRIC Juice-SAP” value (from here on “MDJ TREATED averages”) [1] of the same compound?
The value was 26.1.

And the “Percent increase of Brix, MDJ treated vs control” value (shortened to “Percent increase of Brix”) [1]?
The value was 44.5%.

And the “Percent increase of Brix” value (Malbec, 2.5 mM MDJ, replicate group 2, 22-Sep)?
Its value is 59.4%.

And the “Percent increase of Brix” value (Malbec, 2.5 mM MDJ, replicate group 3, 30-Sep)?
The value was 93.3%.

What about the “Percent increase of Brix” value (Malbec, 2.5 mM MDJ, replicate group 4, 5-Oct) of the same compound?
Its value is 46.3%.

And the “Percent increase of Brix” value (Malbec, 2.5 mM MDJ, replicate group 5, 10-Oct)?
Its value is 25%.

And the “Percent increase of Brix” value (Malbec, 2.5 mM MDJ, replicate group 6, 30-Oct)?
The value was 62.5%.

And the “MDJ TREATED averages” value (Malbec, two applications of 32 oz MDJ at 100 gal/acre (2.5 mM), replicate group 1, 15-Aug)?
Its value is 19.6.

What about the “MDJ TREATED averages” value (Malbec, two applications of 32 oz MDJ at 100 gal/acre (2.5 mM), replicate group 2, 22-Sep) of the same compound?
The value was 24.4.

What about the “MDJ TREATED averages” value (Malbec, two applications of 32 oz MDJ at 100 gal/acre (2.5 mM), replicate group 3, 30-Sep) of the same compound?
Its value is 29.0.

And the “MDJ TREATED averages” value (Malbec, two applications of 32 oz MDJ at 100 gal/acre (2.5 mM), replicate group 4, 5-Oct)?
The value was 30.0.

And the “MDJ TREATED averages” value (Malbec, two applications of 32 oz MDJ at 100 gal/acre (2.5 mM), replicate group 5, 10-Oct)?
Its value is 27.5.

And the “MDJ TREATED averages” value (Malbec, two applications of 32 oz MDJ at 100 gal/acre (2.5 mM), replicate group 6, 30-Oct)?
Its value is 26.0.

What about the “Plant Brix vs control” value (Malbec, two applications of MDJ (2.5 mM)) of the same compound?
Its value is “increase in plant Brix”.

And the “% BRIX” value [2]?
The value was 77.9%.

What about the “AVG Brix of 25 leaves” value [2] of the same compound?
The value was 19.5.

What about the “% BRIX” value [3] of the same compound?
The value was 78.8%.

And the “AVG Brix of 25 leaves” value [3]?
The value was 19.7.

What about the “% BRIX” value [4] of the same compound?
The value was 77.9%.

And the “AVG Brix of 25 leaves” value [4]?
The value was 19.5.

And the “% BRIX” value [5]?
Its value is 99.5%.

What about the “AVG Brix of 25 leaves” value [5] of the same compound?
Its value is 24.9.

And the “% BRIX” value [6]?
Its value is 101.0%.

What about the “AVG Brix of 25 leaves” value [6] of the same compound?
The value was 25.3.

What about the “% BRIX” value [7] of the same compound?
Its value is 91.8%.

What about the “AVG Brix of 25 leaves” value [7] of the same compound?
The value was 23.0.

And the “% BRIX” value [8]?
Its value is 111.9%.

And the “AVG Brix of 25 leaves” value [8]?
Its value is 28.0.

And the “% BRIX” value [9]?
Its value is 117.9%.

And the “AVG Brix of 25 leaves” value [9]?
The value was 29.5.

What about the “% BRIX” value (Replicate 3 sampled on Sep. 30, 2021, MDJ treated Plant #3) of the same compound?
The value was 117.9%.
